Values quoted from earlier work in patent US9585955B2 (priority 2005, dated 2017).

Conditions: 20° C. and 2 atm pressure

For `[N-]=[N+]=O` [Nitrous oxide], the “volume of water in which one liter of the gas dissolves” value is listed as 1.5 L.
